From patent US7772187B2, “Substances directed against a specific sequence essential for heparanase catalytic activity and uses thereof as heparanase inhibitors” (Hadasit Medical Research Services and Development Company, …, priority 2004, dated 2010)

Assays:
heparanase [1] = target: T1, heparanase (Homo sapiens, UniProt Q9Y251); conditions: literature (Miao 1999; Parish 1999; Vlodavsky 1994); cited from earlier work
T1 sequence (Q9Y251 36-543): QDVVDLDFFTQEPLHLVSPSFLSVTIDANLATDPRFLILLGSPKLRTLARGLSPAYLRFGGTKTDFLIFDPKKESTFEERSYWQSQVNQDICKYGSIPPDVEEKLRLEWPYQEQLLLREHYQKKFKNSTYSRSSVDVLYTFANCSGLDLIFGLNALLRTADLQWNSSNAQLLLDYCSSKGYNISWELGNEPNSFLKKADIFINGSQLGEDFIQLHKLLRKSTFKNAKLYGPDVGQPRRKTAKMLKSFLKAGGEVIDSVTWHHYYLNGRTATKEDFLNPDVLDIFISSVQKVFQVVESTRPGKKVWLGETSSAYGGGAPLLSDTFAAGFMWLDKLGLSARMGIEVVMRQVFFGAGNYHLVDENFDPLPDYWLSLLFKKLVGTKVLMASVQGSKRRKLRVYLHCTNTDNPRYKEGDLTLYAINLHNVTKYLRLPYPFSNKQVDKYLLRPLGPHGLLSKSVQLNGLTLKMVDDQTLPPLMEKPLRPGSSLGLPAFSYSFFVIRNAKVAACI

heparanase [2] = target: T2, heparanase (Homo sapiens, UniProt Q9Y251); test: Heparanase activity assay, purified/recombinant active heparanase on 35S-labeled ECM; type: biochemical; conditions: recombinant active heparanase 40 ng, 2 h, pH 7, 10 μg or 25 μg peptide, dose dependent, versus scrambled peptide
T2 construct: a heterodimer composed of the 8 kDa polypeptide non-covalently associated with the 50 kDa heparanase subunit; ImClone Systems Inc. (gift of Dr Miao, not purchased)
T2 sequence (Q9Y251 158-543 limits assumed): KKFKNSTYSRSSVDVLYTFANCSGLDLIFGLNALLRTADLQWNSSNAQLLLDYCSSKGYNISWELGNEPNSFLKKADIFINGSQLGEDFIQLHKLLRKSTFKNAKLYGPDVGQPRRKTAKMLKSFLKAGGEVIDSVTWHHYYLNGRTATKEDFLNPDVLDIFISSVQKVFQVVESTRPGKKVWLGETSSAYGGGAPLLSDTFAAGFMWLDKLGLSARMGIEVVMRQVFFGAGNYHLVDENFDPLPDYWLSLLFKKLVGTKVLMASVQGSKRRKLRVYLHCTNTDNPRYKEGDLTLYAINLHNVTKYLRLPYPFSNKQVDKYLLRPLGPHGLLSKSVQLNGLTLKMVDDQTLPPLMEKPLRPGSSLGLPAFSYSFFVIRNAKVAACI
T2 sequence (Q9Y251 36-109 partner limits assumed): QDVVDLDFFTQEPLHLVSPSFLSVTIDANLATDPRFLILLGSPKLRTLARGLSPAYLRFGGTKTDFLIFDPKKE
Method: FIG. 6A. Purified, active heparanase (20 ng) was added to 1 ml RPMI medium and incubated with affinity-purified antibody #733 (10 μg, ▴), or rabbit IgG (♦) for 1 hour on ice, followed by 1 hour incubation with ^35S-labeled ECM. Heparanase activity was determined as described in ‘Experimental procedures’.
A Purified, recombinant active heparanase (40 ng) was incubated (2 h, pH 7) with 10 μg (▴) or 25 μg (▪) of a peptide containing the amino acid sequence of residues 158 to 171, or with a control, scrambled, peptide (♦). Note a dose-responsive inhibition of heparanase activity upon treatment with the 158-171 peptide.
Preparation of ECM-coated dishes and determination of heparanase activity were performed as described in detail elsewhere [Vlodavsky, I. Current protocols in Cell Biology Vol. 1 pp. 10.14.11-10.14.14, John Wiley & Sons, New York (1999b); Goldshmidt, O. et al., J. Biol. Chem. 276, 29178-29187 (2001); Goldshmidt (2002) ibid.]. […]
To further investigate the importance of this sequence in heparanase catalytic activity, competition experiments were next performed. In these experiments, recombinant active heparanase (40 ng) was incubated (2 h, pH 7) with different concentrations of a peptide containing the amino acid sequence of residues 158 to 171, or with a control scrambled peptide (Scr), and enzymatic activity was determined. […]

heparanase processing [3] = tested on: heparanase processing
From the text: In order to further rule out the plasma membrane as the heparanase processing site, heparanase was targeted to the cell membrane by introducing the PDGF-R transmembrane domain at the heparanase C-terminus.

heparanase processing [4] = test: Heparanase processing in heparanase-transfected cells (immunoblot with antibody #1453); type: cell-based, human
Method: Total cell lysates were immunoblotted with anti-heparanase antibody #1453.
Total cell lysates were then analyzed for heparanase processing by immunoblotting as above.
Total cell lysates were analyzed by immunoblotting as above.
Cell extracts were prepared using a lysis buffer containing 50 mM Tris-HCl, pH 7.4, 150 mM NaCl, 0.5% Triton X-100, supplemented with a cocktail of protease inhibitors (Roche, Indianapolis, Ind.). Protein concentration was determined (Bradford reagent, BioRad, Hercules, Calif.) and 30 μg protein was resolved by SDS-PAGE under reducing conditions using 10% gels. After electrophoresis, proteins were transferred to PVDF membrane (BioRad) and probed with the appropriate antibody followed by HRP-conjugated secondary antibody (Jackson ImmunoResearch, West Grove, Pa.) and an enhanced chemiluminescent substrate (Pierce).

heparanase processing [5] = conditions: U87 glioma cells pre-treated with 100 μM for 2 hours
Method: The latent 65 kDa heparanase protein was then added for the indicated time points and total cell lysates were analyzed for heparanase processing by immunoblotting as above.
Cells were then fixed and immunostained with anti heparanase monoclonal antibody (BD, upper panel) and anti heparanase (733, second panel) antibodies. Merge images are shown at the third panel.
For uptake studies, the 65 kDa heparanase precursor was added to confluent cell cultures at a concentration of 1 μg/ml under serum-free conditions. At the indicated time points, the medium was aspirated, cells were washed twice with ice-cold PBS and total cell lysates were prepared as described. Heparanase uptake and processing were analyzed by immunoblotting with antibody #1453.

laminaran sulfate
inhibition of heparanase activity (heparanase [1]): inhibit heparanase activity

PI-88
inhibition of heparanase activity (heparanase [1]): inhibit heparanase activity

KKFKNSTYSRSSVD (listed as Homo sapiens) [synthetic peptide of residues Lys158-Asp171 of human heparanase]
inhibition of heparanase enzymatic activity (heparanase [2]): significantly inhibited
inhibition of heparanase enzymatic activity (heparanase [2]; listed as Synthetic Peptide Comprising Amino Acid Residues 158 to 171 of Heparanase): Completely Blocks

CCN(CC)CCCC(C)Nc1ccnc2cc(Cl)ccc12 (stereo not shown) [chloroquine]
inhibition of processing of membrane-targeted heparanase (heparanase processing [3]): completely abolished
reversibility of the inhibition of heparanase processing (heparanase processing [4]; heparanase-transfected C6 glioma cells, 50 μM 20 hours, then 24 hours chase in chloroquine-free medium): reversible
inhibition of heparanase processing (heparanase processing [4]; heparanase-transfected HEK-293, MDA-435, C6 and NMU cells, increasing concentrations, 20 hours, dose dependent): completely inhibited
inhibition of processing of exogenously-added heparanase (heparanase processing [5]): completely inhibited

CO/C1=C\C(C)=C\[C@@H](C)[C@@H](O)[C@@H](C)C/C(C)=C/C=C/[C@H](OC)[C@@H]([C@@H](C)[C@@H](O)[C@H](C)[C@@]2(O)C[C@@H](O)[C@H](C)[C@@H](C(C)C)O2)OC1=O [bafilomycin A1]
inhibition of heparanase processing (heparanase processing [4]; heparanase-transfected C6 glioma and NMU cells, indicated concentration (nM), 20 hours): complete inhibition
concentration that completely inhibited heparanase processing (heparanase processing [4]; transfected C6 glioma and NMU cells, 20 hours): ≤ 250 nM
